Experimental data taken from the supplement of paper PMC10627819.

Experiments:
B. subtilis 168 [1] = assay: fitness (endpoint OD595 vs no drug) (fraction); higher = more growth
How it was run: (§1)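 Fitness compares growth at the stationary-phase transition with the robust mean of no-drug control wells, as a ratio of optical densities. The ratio is capped at 1. Wells of 384-well plates held 30 µl, or 55 µl for S. pneumoniae, inoculated at OD595 0.01. Readings at OD595 every 30 min for 14 h at 37 °C were corrected against the first reading.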

S. pneumoniae D39V [2] = assay: as above
How it was run: as §1

S. aureus DSM 20231 [3] = assay: as above
How it was run: as §1

B. subtilis 168 [4] = assay: Bliss interaction score (quartile over a dose matrix) (fitness difference); higher = more antagonism (negative = synergy)
How it was run: (§2)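 The Bliss score is observed minus expected fitness, where expected fitness is the product of the single-drug fitness values inferred from the combination data. Fitness is the OD595 at the onset of stationary phase over the plate's robust no-drug mean, capped at 1. Scores are summarised by quartiles over technical, biological and donor/recipient replicates.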

S. pneumoniae D39V [5] = assay: as above
How it was run: as §2

S. aureus Newman [6] = assay: as above
How it was run: as §2

S. aureus DSM 20231 [7] = assay: as above
How it was run: as §2

S. aureus Newman [8] = assay: fitness (endpoint OD595 vs no drug) (fraction); higher = more growth
How it was run: as §1
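For Bliss interaction score (quartile over a dose matrix) in this document: first quartile when negative (synergy) and third quartile when positive (antagonism).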
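For fitness (endpoint OD595 vs no drug) in this document: OD595 on entry to stationary phase over no-drug wells; at most 1.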

CO/N=C(\C(=O)N[C@@H]1C(=O)N2C(C(=O)O)=C(COC(C)=O)CS[C@H]12)c1csc(N)n1 [Cefotaxime] + CCC[C@@H]1C[C@@H](C(=O)N[C@@H]([C@H]2O[C@H](SC)[C@H](O)[C@@H](O)[C@H]2O)[C@@H](C)O)N(C)C1 [Lincomycin]
fitness, B. subtilis 168 [1], one replicate
Settings | first compound 0.00775 µg/mL | first compound 0.0155 µg/mL | first compound 0.031 µg/mL | first compound 0.0625 µg/mL | first compound 0.125 µg/mL | first compound 0.25 µg/mL
partner 0.1 µg/mL | – | – | – | 0.506 | 0.44 | 0.334
partner 0.2 µg/mL | – | – | – | 0.548 | 0.452 | 0.371
partner 0.4 µg/mL | 0.767 | 0.667 | 0.452 | 0.475 | 0.444 | 0.319
partner 0.8 µg/mL | 0.744 | 0.619 | 0.415 | – | – | –
partner 1.6 µg/mL | 0.683 | 0.575 | 0.388 | – | – | –

fitness
Settings | partner 0.1 µg/mL | partner 0.2 µg/mL | partner 0.215 µg/mL | partner 0.4 µg/mL | partner 0.43 µg/mL | partner 0.8 µg/mL | partner 0.86 µg/mL
B. subtilis 168 [1], first compound 0.5 µg/mL | 0.257 | 0.241 | – | 0.201 | – | – | –
B. subtilis 168 [1], first compound 1 µg/mL | 0.144 | 0.126 | – | 0.0991 | – | – | –
B. subtilis 168 [1], first compound 2 µg/mL | 0.0702 | 0.0617 | – | 0.0675 | – | – | –
S. aureus DSM 20231 [3], first compound 0.039 µg/mL | 0.748 | 0.799 | – | – | – | – | –
S. aureus DSM 20231 [3], first compound 0.078 µg/mL | 0.721 | 0.728 | – | – | – | – | –
S. aureus DSM 20231 [3], first compound 0.156 µg/mL | 0.628 | 0.659 | – | 0.353 | – | – | –
S. aureus DSM 20231 [3], first compound 0.312 µg/mL | 0.582 | 0.569 | – | 0.188 | – | – | –
S. pneumoniae D39V [2], first compound 0.0018 µg/mL | – | 0.667 | 0.903 | 0.469 | 0.759 | 0.185 | 0.56
S. pneumoniae D39V [2], first compound 0.0035 µg/mL | – | 0.626 | 0.866 | 0.455 | 0.748 | 0.142 | 0.489
S. pneumoniae D39V [2], first compound 0.007 µg/mL | – | 0.566 | 0.868 | 0.388 | 0.791 | 0.0851 | 0.469

Settings | Bliss interaction score
B. subtilis 168 [4] | 0.0413
S. aureus DSM 20231 [7] | 0.0625
S. aureus Newman [6] | -0.173
S. pneumoniae D39V [5] | 0.105

CO/N=C(\C(=O)N[C@@H]1C(=O)N2C(C(=O)O)=C(COC(C)=O)CS[C@H]12)c1csc(N)n1 [Cefotaxime] + Cn1nnc(-c2ccc(-c3ccc(N4C[C@H](CO)OC4=O)cc3F)cn2)n1 [Tedizolid]
fitness
Settings | partner 0.03125 µg/mL | partner 0.0625 µg/mL | partner 0.125 µg/mL | partner 0.25 µg/mL | partner 0.5 µg/mL
S. aureus DSM 20231 [3], first compound 0.078 µg/mL | – | 0.767 | 0.718 | 0.532 | –
S. aureus DSM 20231 [3], first compound 0.156 µg/mL | – | 0.761 | 0.608 | 0.509 | –
S. aureus DSM 20231 [3], first compound 0.312 µg/mL | – | 0.691 | 0.602 | 0.448 | –
S. aureus Newman [8], first compound 0.078 µg/mL | – | 0.592 | 0.475 | 0.217 | –
S. aureus Newman [8], first compound 0.156 µg/mL | – | 0.455 | 0.338 | 0.0974 | –
S. aureus Newman [8], first compound 0.312 µg/mL | – | 0.232 | 0.145 | 0.0726 | –
S. aureus Newman [8], first compound 0.625 µg/mL | – | 0.0654 | 0.0082 | 0.0399 | –
S. aureus Newman [8], first compound 1.25 µg/mL | – | 0.021 | 0.0172 | 0.03 | –
S. aureus Newman [8], first compound 2.5 µg/mL | – | 0.0122 | 0.0108 | 0.0325 | –
S. pneumoniae D39V [2], first compound 0.0018 µg/mL | 0.968 | 0.969 | 0.844 | 0.482 | 0.172
S. pneumoniae D39V [2], first compound 0.0035 µg/mL | 0.953 | 0.972 | 0.847 | 0.468 | 0.14
S. pneumoniae D39V [2], first compound 0.007 µg/mL | 0.95 | 0.958 | 0.812 | 0.427 | 0.104

S. aureus DSM 20231 [3], first compound 0.039 µg/mL, one replicate
Settings | fitness
partner 0.0625 µg/mL | 0.806
partner 0.125 µg/mL | 0.762
partner 0.25 µg/mL | 0.643

Settings | Bliss interaction score
B. subtilis 168 [4] | 0.0923
S. aureus DSM 20231 [7] | 0.114
S. aureus Newman [6] | -0.105
S. pneumoniae D39V [5] | 0.0955

COc1cccc2c1C(=O)c1c(O)c3c(c(O)c1C2=O)C[C@@](O)(C(=O)CO)C[C@@H]3O[C@H]1C[C@H](N)[C@H](O)[C@H](C)O1 [Doxorubicin] + CCCCCCCCCC(=O)N[C@@H]1[C@H]([C@@H]([C@H](O[C@H]1OC2=C3C=C4C=C2OC5=C(C=C(C=C5)[C@H]([C@H]6C(=O)N[C@@H](C7=C(C(=CC(=C7)O)OC8[C@H]([C@H]([C@@H]([C@H](O8)CO)O)O)O)C9=C(C=CC(=C9)[C@H](C(=O)N6)NC(=O)[C@@H]4NC(=O)[C@@H]1C2=CC(=CC(=C2)OC2=C(C=CC(=C2)[C@H](C(=O)N[C@H](CC2=CC(=C(O3)C=C2)Cl)C(=O)N1)N)O)O)O)C(=O)O)O[C@H]1[C@@H]([C@H]([C@@H]([C@H](O1)CO)O)O)NC(=O)C)Cl)CO)O)O [Teicoplanin]
fitness, main component drawn
Settings | first compound 0.625 µg/mL | first compound 1.25 µg/mL | first compound 2.5 µg/mL
S. aureus DSM 20231 [3], partner 0.1562 µg/mL | 0.889 | 0.885 | 0.922
S. aureus DSM 20231 [3], partner 0.3125 µg/mL | 0.979 | 0.965 | 0.939
S. aureus DSM 20231 [3], partner 0.625 µg/mL | ≥ 1 | ≥ 1 | 0.978
S. aureus Newman [8], partner 0.1562 µg/mL | 0.886 | 0.809 | 0.728
S. aureus Newman [8], partner 0.3125 µg/mL | 0.872 | 0.808 | 0.713
S. aureus Newman [8], partner 0.625 µg/mL | 0.841 | 0.791 | 0.677

fitness, S. aureus Newman [8], one replicate, main component drawn
Settings | first compound 0.625 µg/mL | first compound 1.25 µg/mL | first compound 2.5 µg/mL
partner 0.62 µg/mL | 0.713 | 0.736 | 0.716
partner 1.24 µg/mL | 0.666 | 0.613 | 0.622
partner 2.48 µg/mL | 0.339 | 0.283 | 0.237

main component drawn
Settings | Bliss interaction score
B. subtilis 168 [4] | 0.0931
S. aureus DSM 20231 [7] | 0.0684
S. aureus Newman [6] | 0.0378
S. pneumoniae D39V [5] | 0.102
